From EP0908457B1, “3-(1,2-benzisothiazol- and isoxazol-5-Y1)-2,4(1H,3H)-pyrimidinedione or thione and 3-(1,2-benzisothiazol- and isoxazol-5-y1)-4(3H)-pyrimidinone or thione herbicidal agents” (BASF AKTIENGESELLSCHAFT, priority 1997, dated 1999)

Experiments:
[1] = tested on: Echinochloa oryzoides (Ard.) Fritsch.; assay: Preemergence weed control under flooded paddy conditions, ECHORC (Watergrass (Calif.)); assay type: in vivo; conditions: preemergence, flooded paddy, rated three to four weeks after treatment; note: meaning of each grade not given here
Cyperus iria [2] = assay: Preemergence weed control under flooded paddy conditions, CYPIR (Rice Flatsedge); assay type: in vivo; conditions: preemergence, flooded paddy, rated three to four weeks after treatment; note: meaning of each grade not given here
[3] = tested on: Cyperus serotinus, Rottb.; assay: Preemergence weed control under flooded paddy conditions, CYPSE (Flatsedge); assay type: in vivo; conditions: preemergence, rated three to four weeks after treatment; note: meaning of each grade not given here
[4] = tested on: Monochoria vaginalis, Presl.; assay: Preemergence weed control under flooded paddy conditions, MOOVA (Monochoria); assay type: in vivo; conditions: preemergence, flooded paddy, rated three to four weeks after treatment; note: meaning of each grade not given here
Sagittaria pygmaea, L. [5] = assay: Preemergence weed control under flooded paddy conditions, SAGPY (Arrowhead (Pygmaea)); assay type: in vivo; conditions: preemergence, flooded paddy, rated three to four weeks after treatment; note: meaning of each grade not given here
[6] = tested on: Echinochloa oryzoides (Ard.) Fritsch.; assay: Postemergence weed control under flooded paddy conditions, ECHORC (Watergrass (Calif.)); assay type: in vivo; conditions: rated three to four weeks after treatment
Cyperus iria [7] = assay: Postemergence weed control under flooded paddy conditions, CYPIR (Rice Flatsedge); assay type: in vivo; conditions: rated three to four weeks after treatment
[8] = tested on: Cyperus serotinus, Rottb.; assay: Postemergence weed control under flooded paddy conditions, CYPSE (Flatsedge); assay type: in vivo; conditions: rated three to four weeks after treatment
[9] = tested on: Monochoria vaginalis, Presl.; assay: Postemergence weed control under flooded paddy conditions, MOOVA (Monochoria); assay type: in vivo; conditions: rated three to four weeks after treatment
Sagittaria pygmaea, L. [10] = assay: Postemergence weed control under flooded paddy conditions, SAGPY (Arrowhead (Pygmaea)); assay type: in vivo; conditions: rated three to four weeks after treatment
[11] = tested on: Oryza sativa, (L.) Tebonnet; assay: Rice tolerance to post-transplant applications under flooded paddy conditions (Example 187), ORYSAT (Rice, Tebonnet); conditions: rated three to four weeks after treatment
[12] = tested on: Oryza sativa, (L.) Tebonnet; assay: Rice tolerance to post-transplant applications under flooded paddy conditions (Example 188), ORYSAT (Rice, Tebonnet); conditions: rated three to four weeks after treatment

## CCc1ccc(-c2nsc3ccc(-n4c(=O)cc(C(F)(F)F)n(C)c4=O)cc23)cc1 [Example 5, 3-[3-(p-Ethylphenyl)-1,2-benzisothiazol-5-yl]-1-methyl-6-(trifluoromethyl)-2,4(1H,3H)-pyrimidinedione]
[1]; 0.0313 kg/ha
  herbicidal effect rating, ECHORC: 9.0
[1]; 0.0625 kg/ha
  herbicidal effect rating, ECHORC: 9.0
[1]; 0.1250 kg/ha
  herbicidal effect rating, ECHORC: 9.0
[1]; 0.2500 kg/ha
  herbicidal effect rating, ECHORC: 9.0
[1]; 0.5000 kg/ha
  herbicidal effect rating, ECHORC: 9.0
Cyperus iria [2]; 0.0313 kg/ha
  herbicidal effect rating, CYPIR: 9.0
Cyperus iria [2]; 0.0625 kg/ha
  herbicidal effect rating, CYPIR: 9.0
Cyperus iria [2]; 0.1250 kg/ha
  herbicidal effect rating, CYPIR: 9.0
Cyperus iria [2]; 0.2500 kg/ha
  herbicidal effect rating, CYPIR: 9.0
Cyperus iria [2]; 0.5000 kg/ha
  herbicidal effect rating, CYPIR: 9.0
[3]; 0.0313 kg/ha
  herbicidal effect rating, CYPSE: 0.0
[3]; 0.0625 kg/ha
  herbicidal effect rating, CYPSE: 2.0
[3]; 0.1250 kg/ha
  herbicidal effect rating, CYPSE: 6.0
[3]; 0.2500 kg/ha
  herbicidal effect rating, CYPSE: 8.0
[3]; 0.5000 kg/ha
  herbicidal effect rating, CYPSE: 7.0
[4]; 0.0313 kg/ha
  herbicidal effect rating, MOOVA: 9.0
[4]; 0.0625 kg/ha
  herbicidal effect rating, MOOVA: 9.0
[4]; 0.1250 kg/ha
  herbicidal effect rating, MOOVA: 9.0
[4]; 0.2500 kg/ha
  herbicidal effect rating, MOOVA: 9.0
[4]; 0.5000 kg/ha
  herbicidal effect rating, MOOVA: 9.0
Sagittaria pygmaea, L. [5]; 0.0313 kg/ha
  herbicidal effect rating, SAGPY: 0.0
Sagittaria pygmaea, L. [5]; 0.0625 kg/ha
  herbicidal effect rating, SAGPY: 0.0
Sagittaria pygmaea, L. [5]; 0.1250 kg/ha
  herbicidal effect rating, SAGPY: 2.0
Sagittaria pygmaea, L. [5]; 0.2500 kg/ha
  herbicidal effect rating, SAGPY: 7.0
Sagittaria pygmaea, L. [5]; 0.5000 kg/ha
  herbicidal effect rating, SAGPY: 7.0
[6]; Rate 0.0313 kg/ha
  herbicidal effect rating, ECHORC: 2.0
[6]; Rate 0.0625 kg/ha
  herbicidal effect rating, ECHORC: 7.0
[6]; Rate 0.1250 kg/ha
  herbicidal effect rating, ECHORC: 6.0
[6]; Rate 0.2500 kg/ha
  herbicidal effect rating, ECHORC: 9.0
[6]; Rate 0.5000 kg/ha
  herbicidal effect rating, ECHORC: 9.0
Cyperus iria [7]; Rate 0.0313 kg/ha
  herbicidal effect rating, CYPIR: 9.0
Cyperus iria [7]; Rate 0.0625 kg/ha
  herbicidal effect rating, CYPIR: 9.0
Cyperus iria [7]; Rate 0.1250 kg/ha
  herbicidal effect rating, CYPIR: 9.0
Cyperus iria [7]; Rate 0.2500 kg/ha
  herbicidal effect rating, CYPIR: 9.0
Cyperus iria [7]; Rate 0.5000 kg/ha
  herbicidal effect rating, CYPIR: 9.0
[8]; Rate 0.0313 kg/ha
  herbicidal effect rating, CYPSE: 0.0
[8]; Rate 0.0625 kg/ha
  herbicidal effect rating, CYPSE: 0.0
[8]; Rate 0.1250 kg/ha
  herbicidal effect rating, CYPSE: 0.0
[8]; Rate 0.2500 kg/ha
  herbicidal effect rating, CYPSE: 0.0
[8]; Rate 0.5000 kg/ha
  herbicidal effect rating, CYPSE: 0.0
[9]; Rate 0.0313 kg/ha
  herbicidal effect rating, MOOVA: 9.0
[9]; Rate 0.0625 kg/ha
  herbicidal effect rating, MOOVA: 9.0
[9]; Rate 0.1250 kg/ha
  herbicidal effect rating, MOOVA: 9.0
[9]; Rate 0.2500 kg/ha
  herbicidal effect rating, MOOVA: 9.0
[9]; Rate 0.5000 kg/ha
  herbicidal effect rating, MOOVA: 9.0
Sagittaria pygmaea, L. [10]; Rate 0.0313 kg/ha
  herbicidal effect rating, SAGPY: 2.0
Sagittaria pygmaea, L. [10]; Rate 0.0625 kg/ha
  herbicidal effect rating, SAGPY: 2.0
Sagittaria pygmaea, L. [10]; Rate 0.1250 kg/ha
  herbicidal effect rating, SAGPY: 4.0
Sagittaria pygmaea, L. [10]; Rate 0.2500 kg/ha
  herbicidal effect rating, SAGPY: 6.0
Sagittaria pygmaea, L. [10]; Rate 0.5000 kg/ha
  herbicidal effect rating, SAGPY: 8.0
[11]; 0.0313 kg/ha
  herbicidal effect rating, ORYSAT (rice tolerance): 2.0
[11]; 0.0625 kg/ha
  herbicidal effect rating, ORYSAT (rice tolerance): 3.0
[11]; 0.1250 kg/ha
  herbicidal effect rating, ORYSAT (rice tolerance): 4.0
[11]; 0.2500 kg/ha
  herbicidal effect rating, ORYSAT (rice tolerance): 5.0
[11]; 0.5000 kg/ha
  herbicidal effect rating, ORYSAT (rice tolerance): 7.0
[12]; Rate 0.0313 kg/ha
  herbicidal effect rating, ORYSAT (rice tolerance): 2.0
[12]; Rate 0.0625 kg/ha
  herbicidal effect rating, ORYSAT (rice tolerance): 2.0
[12]; Rate 0.1250 kg/ha
  herbicidal effect rating, ORYSAT (rice tolerance): 4.0
[12]; Rate 0.2500 kg/ha
  herbicidal effect rating, ORYSAT (rice tolerance): 6.0
[12]; Rate 0.5000 kg/ha
  herbicidal effect rating, ORYSAT (rice tolerance): 8.0
